According to ChEMBL document CHEMBL4118122, “Identification and biological evaluation of thiazole-based inverse agonists of RORγt” (Bioorg Med Chem Lett, 2018):

What was measured:
[1] = Clearance in Sprague-Dawley rat at 1 mg/kg, iv; format: ADME, organism-based; details: in vivo
[2] = target: Cholecystokinin receptor type A (Homo sapiens) (UniProt P32238); assay: Displacement of [125I]CCK-8s from human recombinant CCK1 receptor at 10 uM after 60 mins by scintillation counting analysis relative to control
Nociceptin receptor = Nociceptin receptor (Homo sapiens, UniProt P41146); assay: Displacement of [3H]nociceptin from human recombinant NOP receptor at 1 uM after 60 mins by scintillation counting analysis relative to control
[3] = target: 5-hydroxytryptamine receptor 5A (Homo sapiens, UniProt P47898); assay: Displacement of [3H]LSD from human recombinant 5-HT5a receptor at 1 uM after 120 mins by scintillation counting analysis relative to control
[4] = target: Muscarinic acetylcholine receptor M2 (Homo sapiens) (UniProt P08172); assay: Displacement of [3H]AF-DX 384 from human recombinant M2 receptor at 1 uM after 60 mins by scintillation counting analysis relative to control
[5] = target: Serine/threonine-protein kinase PLK3 (Homo sapiens) (UniProt Q9H4B4); assay: Inhibition of GST-tagged human PLK3 catalytic domain expressed in baculovirus expression system at 10 uM in presence of ATP relative to control
[6] = target: Dual specificity protein kinase CLK2 (Homo sapiens) (UniProt P49760); assay: Inhibition of recombinant GST-tagged human CLK2 catalytic domain (137 to 498 residues) expressed in baculovirus expression system at 10 uM in presence of ATP relative to control
[7] = target: Muscarinic acetylcholine receptor M1 (Homo sapiens, UniProt P11229); assay: Displacement of […] from human recombinant M1 receptor after 60 mins by scintillation counting analysis
[8] = target: 5-hydroxytryptamine receptor 2B (Homo sapiens, UniProt P41595); assay: Displacement of [125I]+/-DOI from human recombinant 5-HT2B receptor after 60 mins by scintillation counting analysis
5-hydroxytryptamine receptor 2B, sequence (P41595 whole entry): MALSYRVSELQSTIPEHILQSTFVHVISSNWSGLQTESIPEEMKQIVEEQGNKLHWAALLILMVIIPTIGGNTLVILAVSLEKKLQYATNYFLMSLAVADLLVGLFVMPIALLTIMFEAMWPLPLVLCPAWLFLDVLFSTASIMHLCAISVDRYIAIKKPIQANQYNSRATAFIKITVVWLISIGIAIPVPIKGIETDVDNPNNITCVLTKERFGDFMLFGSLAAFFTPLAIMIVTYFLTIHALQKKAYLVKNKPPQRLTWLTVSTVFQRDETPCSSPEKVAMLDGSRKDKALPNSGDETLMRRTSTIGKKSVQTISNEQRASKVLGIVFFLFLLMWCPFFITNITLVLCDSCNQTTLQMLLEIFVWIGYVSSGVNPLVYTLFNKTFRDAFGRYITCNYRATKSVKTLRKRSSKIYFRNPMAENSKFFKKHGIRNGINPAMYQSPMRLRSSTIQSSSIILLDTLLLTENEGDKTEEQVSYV

Rattus norvegicus [9] = organism: Rattus norvegicus; assay: Binding affinity to rat GABA receptor at 10 uM after 60 mins by radioligand binding assay relative to control
[10] = target: T1, Sodium-dependent serotonin transporter (Homo sapiens, UniProt P31645); assay: Displacement of [3H]-imipramine from recombinant human 5-HT transporter after 60 mins by scintillation counting relative to control
Target sequence in this assay (P31645 whole entry): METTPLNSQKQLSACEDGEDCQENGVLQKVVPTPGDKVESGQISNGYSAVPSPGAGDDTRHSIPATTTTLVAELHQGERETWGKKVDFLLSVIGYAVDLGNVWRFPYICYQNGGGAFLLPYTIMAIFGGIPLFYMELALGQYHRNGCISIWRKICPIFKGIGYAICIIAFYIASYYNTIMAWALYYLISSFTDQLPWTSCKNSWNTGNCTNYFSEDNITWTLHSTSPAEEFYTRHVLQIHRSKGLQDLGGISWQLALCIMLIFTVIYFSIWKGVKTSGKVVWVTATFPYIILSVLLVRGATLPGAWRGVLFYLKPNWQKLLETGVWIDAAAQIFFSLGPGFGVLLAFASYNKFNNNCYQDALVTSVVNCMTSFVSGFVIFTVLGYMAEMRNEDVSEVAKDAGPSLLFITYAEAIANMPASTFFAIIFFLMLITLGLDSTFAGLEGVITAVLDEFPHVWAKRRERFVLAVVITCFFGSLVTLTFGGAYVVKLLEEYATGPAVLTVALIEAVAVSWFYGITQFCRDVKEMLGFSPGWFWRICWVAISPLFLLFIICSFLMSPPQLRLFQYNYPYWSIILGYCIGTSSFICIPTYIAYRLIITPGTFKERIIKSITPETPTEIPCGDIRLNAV

Rattus norvegicus [11] = organism: Rattus norvegicus; assay: Displacement of [3H]flunitrazepam from rat brain central BZD at 1 uM after 60 mins relative to control
Mu-type opioid receptor = Mu-type opioid receptor (Homo sapiens, UniProt P35372); assay: Displacement of [3H]DAMGO from human recombinant mu receptor after 120 mins by scintillation counting analysis
Rattus norvegicus [12] = organism: Rattus norvegicus; assay: Binding affinity to rat GABA receptor at 1 uM after 60 mins by agonist radioligand binding assay relative to control
[13] = target: Muscarinic acetylcholine receptor M1 (Homo sapiens) (UniProt P11229); assay: Displacement of […] from human recombinant M1 receptor at 10 uM after 60 mins by scintillation counting analysis relative to control
Histamine H2 receptor = Histamine H2 receptor (Homo sapiens, UniProt P25021); assay: Displacement of [125I]APT from human recombinant histamine H2 receptor after 120 mins by scintillation counting analysis
[14] = target: Substance-K receptor (Homo sapiens) (UniProt P21452); assay: Displacement of [125I]NKA from human recombinant NK2 receptor at 1 uM after 60 mins by scintillation counting analysis relative to control
[15] = target: Aurora kinase B (Homo sapiens) (UniProt Q96GD4); assay: Inhibition of recombinant full length His-tagged human Aurora B expressed in baculovirus expression system at 10 uM in presence of ATP relative to control
Aurora kinase B (Homo sapiens), sequence (Q96GD4 whole entry): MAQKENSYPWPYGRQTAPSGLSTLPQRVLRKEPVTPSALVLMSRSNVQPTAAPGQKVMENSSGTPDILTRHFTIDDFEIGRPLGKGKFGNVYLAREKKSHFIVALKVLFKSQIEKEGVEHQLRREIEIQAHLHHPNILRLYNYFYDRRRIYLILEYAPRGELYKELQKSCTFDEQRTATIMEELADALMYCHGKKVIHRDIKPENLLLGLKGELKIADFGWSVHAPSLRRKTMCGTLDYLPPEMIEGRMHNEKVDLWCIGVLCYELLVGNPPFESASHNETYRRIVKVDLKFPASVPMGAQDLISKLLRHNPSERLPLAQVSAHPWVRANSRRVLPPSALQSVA

[16] = target: B2 bradykinin receptor (Homo sapiens) (UniProt P30411); assay: Displacement of [3H]bradykinin from human recombinant B2 receptor at 1 uM after 60 mins by scintillation counting analysis relative to control
B2 bradykinin receptor (Homo sapiens), sequence (P30411 whole entry, the tested form may be a part): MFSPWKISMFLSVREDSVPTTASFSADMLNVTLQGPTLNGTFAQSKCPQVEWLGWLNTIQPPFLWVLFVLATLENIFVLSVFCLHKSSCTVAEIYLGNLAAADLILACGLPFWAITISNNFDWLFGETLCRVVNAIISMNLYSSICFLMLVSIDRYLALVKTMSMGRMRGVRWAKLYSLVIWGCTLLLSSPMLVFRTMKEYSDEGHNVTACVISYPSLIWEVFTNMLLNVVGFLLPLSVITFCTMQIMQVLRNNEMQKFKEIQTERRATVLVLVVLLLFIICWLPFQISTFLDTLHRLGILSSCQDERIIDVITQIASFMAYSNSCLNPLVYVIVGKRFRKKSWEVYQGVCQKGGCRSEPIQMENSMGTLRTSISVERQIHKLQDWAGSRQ

[17] = target: Activin receptor type-1B (Homo sapiens) (UniProt P36896); assay: Inhibition of recombinant GST-tagged human ACVR1B catalytic domain (150 to 505 residues) expressed in baculovirus expression system at 10 uM in presence of ATP relative to control
Activin receptor type-1B (Homo sapiens), sequence (P36896 whole entry, the tested form may be a part): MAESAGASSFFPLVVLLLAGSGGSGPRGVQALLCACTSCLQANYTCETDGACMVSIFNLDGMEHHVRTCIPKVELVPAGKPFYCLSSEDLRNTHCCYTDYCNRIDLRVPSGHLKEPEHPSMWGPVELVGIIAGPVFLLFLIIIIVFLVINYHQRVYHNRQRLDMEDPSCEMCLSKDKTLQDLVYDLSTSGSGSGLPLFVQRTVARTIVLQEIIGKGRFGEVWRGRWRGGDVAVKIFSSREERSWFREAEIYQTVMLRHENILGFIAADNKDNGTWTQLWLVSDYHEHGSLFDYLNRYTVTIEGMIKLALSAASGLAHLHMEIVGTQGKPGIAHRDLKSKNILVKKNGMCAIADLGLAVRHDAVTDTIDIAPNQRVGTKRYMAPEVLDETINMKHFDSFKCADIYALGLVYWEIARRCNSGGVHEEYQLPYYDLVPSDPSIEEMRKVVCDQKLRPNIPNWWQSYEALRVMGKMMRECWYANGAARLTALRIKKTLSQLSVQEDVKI

[18] = target: Type-1 angiotensin II receptor (Homo sapiens) (UniProt P30556); assay: Displacement of [125I][Sar1,Ile8]-AT-II from human recombinant AT1 receptor at 10 uM after 120 mins by scintillation counting analysis relative to control
Type-1 angiotensin II receptor (Homo sapiens), sequence (P30556 whole entry): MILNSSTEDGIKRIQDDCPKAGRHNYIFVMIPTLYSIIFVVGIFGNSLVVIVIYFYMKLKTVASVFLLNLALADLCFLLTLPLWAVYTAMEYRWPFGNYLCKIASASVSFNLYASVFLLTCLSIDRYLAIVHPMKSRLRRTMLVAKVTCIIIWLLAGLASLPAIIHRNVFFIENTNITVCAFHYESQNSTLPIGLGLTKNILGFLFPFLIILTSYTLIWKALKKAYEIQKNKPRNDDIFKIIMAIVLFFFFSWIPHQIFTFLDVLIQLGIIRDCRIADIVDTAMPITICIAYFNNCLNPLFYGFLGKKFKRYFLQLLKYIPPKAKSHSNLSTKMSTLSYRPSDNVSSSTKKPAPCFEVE

[19] = Thermodynamic solubility of the compound in 30 mM phosphate buffer at 10 mM at pH 7 after 2 to 5 days by UV-HPLC analysis; format: physicochemical; details: read-out: Therm_solubility
[20] = target: Delta-type opioid receptor (Homo sapiens, UniProt P41143); assay: Displacement of [3H]DADLE from human recombinant delta opioid receptor at 1 uM after 60 mins by scintillation counting analysis relative to control
[21] = tested on: Casein kinase II subunit alpha' (CSNK2A2); assay: Inhibition of CK2alpha2 (unknown origin) at 10 uM in presence of ATP relative to control; details: Homo sapiens
[22] = target: Sodium-dependent noradrenaline transporter (Homo sapiens, UniProt P23975); assay: Displacement of [3H]nisoxetine from recombinant human norepinephrine transporter at 1 uM after 120 mins by scintillation counting analysis relative to control
Sodium-dependent noradrenaline transporter, sequence (P23975 whole entry): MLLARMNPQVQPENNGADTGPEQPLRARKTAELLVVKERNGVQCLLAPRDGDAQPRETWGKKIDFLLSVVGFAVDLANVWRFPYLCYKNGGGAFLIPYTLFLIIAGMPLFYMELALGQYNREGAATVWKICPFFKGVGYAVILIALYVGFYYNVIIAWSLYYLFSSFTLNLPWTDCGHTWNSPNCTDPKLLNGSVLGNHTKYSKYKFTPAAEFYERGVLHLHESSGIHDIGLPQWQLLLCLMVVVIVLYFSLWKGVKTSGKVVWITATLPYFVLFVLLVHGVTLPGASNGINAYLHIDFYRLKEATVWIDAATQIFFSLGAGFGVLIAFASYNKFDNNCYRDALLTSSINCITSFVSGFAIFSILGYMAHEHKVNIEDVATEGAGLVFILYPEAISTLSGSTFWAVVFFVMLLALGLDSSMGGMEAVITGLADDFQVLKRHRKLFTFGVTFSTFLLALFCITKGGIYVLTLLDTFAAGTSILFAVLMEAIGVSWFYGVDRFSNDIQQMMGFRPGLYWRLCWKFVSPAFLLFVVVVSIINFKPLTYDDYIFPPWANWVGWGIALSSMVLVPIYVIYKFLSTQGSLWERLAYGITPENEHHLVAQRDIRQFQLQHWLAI

[23] = target: 5-hydroxytryptamine receptor 6 (Homo sapiens, UniProt P50406); assay: Displacement of [3H]LSD from human recombinant 5-HT6 receptor at 10 uM after 120 mins by scintillation counting analysis relative to control
[24] = Terminal half life in Sprague-Dawley rat at 5 mg/kg, po; format: ADME, organism-based; details: in vivo, read-out: beta t1/2 (converted)
[25] = target: 5-hydroxytryptamine receptor 2A (Homo sapiens, UniProt P28223); assay: Displacement of [3H]ketanserin human recombinant 5-HT2A receptor at 10 uM after 60 mins by scintillation counting analysis relative to control
[26] = target: Mitogen-activated protein kinase 12 (Homo sapiens) (UniProt P53778); assay: Inhibition of recombinant full length His-tagged human p38gamma expressed in baculovirus expression system at 10 uM in presence of ATP relative to control
Mitogen-activated protein kinase 12 (Homo sapiens), sequence (P53778 whole entry): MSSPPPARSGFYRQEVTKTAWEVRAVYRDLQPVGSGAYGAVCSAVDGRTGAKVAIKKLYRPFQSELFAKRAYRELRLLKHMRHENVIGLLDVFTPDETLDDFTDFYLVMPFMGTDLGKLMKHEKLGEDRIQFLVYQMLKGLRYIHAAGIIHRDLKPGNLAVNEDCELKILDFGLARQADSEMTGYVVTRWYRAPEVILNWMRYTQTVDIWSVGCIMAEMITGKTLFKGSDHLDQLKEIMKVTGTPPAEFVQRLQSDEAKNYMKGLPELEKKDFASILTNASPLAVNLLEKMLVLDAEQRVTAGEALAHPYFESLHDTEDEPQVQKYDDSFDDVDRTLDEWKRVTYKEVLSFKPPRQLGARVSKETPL

Cytochrome P450 2C9 = Cytochrome P450 2C9 (Homo sapiens, UniProt P11712); assay: Inhibition of CYP2C9 (unknown origin); format: ADME
Cytochrome P450 2C9, sequence (P11712 whole entry): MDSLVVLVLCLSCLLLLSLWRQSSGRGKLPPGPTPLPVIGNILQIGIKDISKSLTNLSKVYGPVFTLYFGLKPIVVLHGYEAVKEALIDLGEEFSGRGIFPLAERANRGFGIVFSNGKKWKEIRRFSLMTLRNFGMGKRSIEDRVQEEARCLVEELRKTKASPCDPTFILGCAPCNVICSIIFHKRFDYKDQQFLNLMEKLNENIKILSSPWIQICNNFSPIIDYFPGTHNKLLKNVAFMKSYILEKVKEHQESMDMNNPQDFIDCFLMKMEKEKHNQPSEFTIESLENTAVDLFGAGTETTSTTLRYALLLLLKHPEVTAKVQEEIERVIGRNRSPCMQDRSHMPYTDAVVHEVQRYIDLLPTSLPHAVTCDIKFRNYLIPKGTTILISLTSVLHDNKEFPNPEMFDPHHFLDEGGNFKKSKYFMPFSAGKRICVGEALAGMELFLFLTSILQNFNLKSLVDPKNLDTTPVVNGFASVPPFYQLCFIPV

[27] = target: Vasoactive intestinal polypeptide receptor 1 (Homo sapiens) (UniProt P32241); assay: Displacement of [125I]VIP from human recombinant VPAC1 receptor at 1 uM after 60 mins by scintillation counting analysis relative to control
[28] = target: B2 bradykinin receptor (Homo sapiens) (UniProt P30411); assay: Displacement of [3H]bradykinin from human recombinant B2 receptor at 10 uM after 60 mins by scintillation counting analysis relative to control
[29] = target: Galanin receptor type 2 (Homo sapiens) (UniProt O43603); assay: Displacement of [125I]-endothelin-1 from human recombinant GAL2 receptor at 10 uM after 120 mins by scintillation counting analysis relative to control
[30] = target: T1, Sodium-dependent serotonin transporter; assay: Displacement of [3H]-imipramine from recombinant human 5-HT transporter at 10 uM after 60 mins by scintillation counting relative to control
Target sequence in this assay (P31645 whole entry, looked up): as the sequence (P31645 whole entry) above

CC(C)(C)NS(=O)(=O)c1ccc(-c2sc(C(=O)N[C@H]3C[C@H](C(=O)O)C3)nc2CC2CCCCC2)c2ccccc12
clearance [1]: 51.4 mL/min/kg
inhibition [2]: 54%
inhibition (Nociceptin receptor): < 10%
inhibition [3]: < 10%
inhibition [4]: < 10%
inhibition [5]: -5%
inhibition [6]: -1%
IC50 [7]: 18 nM
IC50 [8]: 3.2 nM
inhibition (Rattus norvegicus [9]): 14%
IC50 [10]: 1.7 nM
inhibition (Rattus norvegicus [11]): < 10%
IC50 (Mu-type opioid receptor): 1.1 nM
inhibition (Rattus norvegicus [12]): < 10%
inhibition [13]: < 10%
IC50 (Histamine H2 receptor): 142 nM
inhibition [14]: < 10%
inhibition [15]: 8%
inhibition [16]: < 10%
inhibition [17]: -2%
inhibition [18]: < 10%
solubility thermodynamic at 10000 µM [19]: < 1 µM
inhibition [20]: 12%
inhibition [21]: 2%
inhibition [22]: < 10%
inhibition [23]: 33%
half-life [24]: 2.1 h
inhibition [25]: < 10%
inhibition [26]: -2%
INH (Cytochrome P450 2C9): 9.9 µM
inhibition [27]: < 10%
inhibition [28]: < 10%
inhibition [29]: < 10%
inhibition [30]: < 10%
